Data as given in patent US20260034120A1, “TREATING CANCER WITH LONG-ACTING TOPOISOMERASE I INHIBITOR” (priority 2022, published 2026).

Experiments:
[1] = cited from earlier work; for t½: humans, PLX038 prodrug and SN-38 released from it
[2] = test system: 22Rv1 ATM KO xenografts; experiment: PLX038A, TLZ and combination in 22Rv1 ATM KO xenografts; assay type: in vivo
[3] = test system: MX-1 xenografts; experiment: PLX038A, TLZ and combination in MX-1 xenografts; assay type: in vivo, mice; details: PLX038A 15 μmol/kg, TLZ 0.4 μmol/kg/day
From the text: When tumors reached 170 mm^3, mice received a single intraperitoneal dose of vehicle, a single intraperitoneal dose of PLX038A (15 μmol/kg), a daily oral dose of talazoparib (0.4 μmol/kg) or a combination of PLX038A (15 μmol/kg) and daily oral TLZ (0.4 μmol/kg) starting on either day 0 (same day as PLX038A dosing) or day 4.

[4] = test system: metastatic breast cancer with pathogenic germline ATM mutation; experiment: PLX038 and rucaparib in a patient with ATM deficient breast cancer (NCT04209595); assay type: in vivo, human; details: single-agent low-dose PLX038 after rucaparib suspension at 4 months
Description: A patient with metastatic breast cancer and germline ATM mutation was enrolled in the ongoing dose escalation phase of the trial. […] The patient was initially diagnosed with locally advanced invasive ductal carcinoma and was treated with neoadjuvant chemotherapy followed by surgery and radiation. Nine years later, they developed metastatic disease expressing estrogen and progesterone receptors, and was treated with multiple anti-endocrine therapies and chemotherapies including eribulin, abraxane, and carboplatin. […] At enrolment, they had skin lesions on the breast which were painful and pruritic and in addition had involvement of the lung and bones. […] The mutation results from a C to T substitution at nucleotide position 5908 and creates a premature translational stop signal which is expected to result in an absence or disrupted ATM protein. The variant was not present in population databases such as ExaC but has been reported in the literature in individuals with ataxia-telangiectasia and recognized as a founder mutation in the Costa Rican population.

Compound	half-life ([1]; SN-38 formed from CPT-11) [h]	t½ [1]	T/C3 wk ([2]; PLX038A 1.9 μmol/kg, TLZ 0.2 μmol/kg/day)	T/C3 wk ([2]; PLX038A 1.95 μmol/kg, TLZ 0.3 μmol/kg/day)	T/C3 wk ([2]; PLX038A 3.75 μmol/kg, TLZ 0.2 μmol/kg/day)	T/C3 wk ([2]; PLX038A 3.75 μmol/kg, TLZ 0.3 μmol/kg/day)	T/C3 wk ([2]; PLX038A 7.5 μmol/kg, TLZ 0.4 μmol/kg/day)	inhibition of tumor growth ([2]; TLZ QD PO 0.2 μmol/kg)	inhibition of tumor growth ([2]; TLZ QD PO 0.4 μmol/kg)	T/C3 wk [3]	duration of sustained suppression of the tumor after treatment initiation [4] [months]
CCc1c2c(nc3ccc(O)cc13)-c1cc3c(c(=O)n1C2)COC(=O)[C@]3(O)CC [SN-38]	~12	about 5 days	–	–	–	–	–	–	–	–	–
Cn1ncnc1[C@H]1c2n[nH]c(=O)c3cc(F)cc(c23)N[C@@H]1c1ccc(F)cc1 [TLZ, talazoparib]	–	–	0.76	0.69	0.76	0.69	0.72	insignificantly inhibitory	modestly inhibitory	0.21	–
O-[7-(tetra-polyethylene glycol ether)-carboxamido-1-cyano-2-heptyl]-N-(10′-methoxy-7′-ethyl-camptothecin)-N-[4′-(diethylcarbamoyl)phenyl)]carbamate [PLX038]	–	about 5 days	–	–	–	–	–	–	–	–	12
